Test results published in PubChem BioAssay (NCI).
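Following 48 hours of exposure in 96-well plates, responses at five concentrations were used to interpolate endpoints linearly. The concentration for full growth arrest is given as TGI.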

Columns and labels:
Test in all cases: growth of human tumour cells (NCI), 48 h
[1] = test system: KM12 colon
[2] = test system: DU-145 prostate
[3] = test system: SNB-19 CNS
[4] = test system: EKVX NSCLC
[5] = test system: HCC-2998 colon
[6] = test system: OVCAR-3 ovarian
[7] = test system: HOP-62 NSCLC
[8] = test system: MDA-MB-435
[9] = test system: SK-MEL-28 melanoma
[10] = test system: IGROV1 ovarian
[11] = test system: MDA-N
[12] = test system: NCI-H522 lung
[13] = test system: 786-0 renal
[14] = test system: HS 578T breast
[15] = test system: PC-3 prostate
[16] = test system: NCI-H460 lung
[17] = test system: NCI/ADR-RES ovarian
[18] = test system: MOLT-4 leukemia
[19] = test system: TK-10 renal
[20] = test system: COLO 205 colon
[21] = test system: CCRF-CEM leukemia
[22] = test system: MDA-MB-231 breast
[23] = test system: SK-MEL-5 melanoma
[24] = test system: HCT-116 colon
[25] = test system: SF-268 CNS
[26] = test system: HL-60(TB) leukemia
[27] = test system: MALME-3M melanoma
[28] = test system: OVCAR-4 ovarian
[29] = test system: SW-620 colon
[30] = test system: K-562 leukemia
[31] = test system: SNB-75 CNS
[32] = test system: MCF7 breast
[33] = test system: A549 NSCLC
[34] = test system: SF-295 CNS
[35] = test system: CAKI-1 renal
[36] = test system: OVCAR-5 ovarian
[37] = test system: RPMI-8226 leukemia
[38] = test system: OVCAR-8 ovarian
[39] = test system: M14 melanoma
[40] = test system: SF-539 CNS
[41] = test system: ACHN renal
[42] = test system: UACC-62 melanoma
[43] = test system: HCT-15 colon
[44] = test system: UACC-257 melanoma
[45] = test system: BT-549 breast
[46] = test system: SK-OV-3 ovarian
[47] = test system: HT29 colon
[48] = test system: HOP-92 NSCLC
[49] = test system: SN12C renal
[50] = test system: T-47D breast
[51] = test system: U251 CNS
[52] = test system: SK-MEL-2 melanoma
[53] = test system: NCI-H23 lung
[54] = test system: RXF 393 renal
[55] = test system: SR leukemia
[56] = test system: LOX IMVI melanoma
[57] = test system: UO-31 renal

`O=C(/C=C(\S/C=C(/c1ccccc1)N1CCn2c(C(=O)c3ccccc3)c(C(=O)c3ccccc3)c(C(=O)c3ccccc3)c21)C(=O)c1ccccc1)c1ccccc1` was tested, and the TGI [1] was > 10 µM, the TGI [2] was > 10 µM and the TGI [3] was > 10 µM. For the same compound, the TGI [4] was > 10 µM, the TGI [5] was > 10 µM and the TGI [6] was > 10 µM. The TGI [7] was > 10 µM, the TGI [8] was > 10 µM and the TGI [9] was > 10 µM. The TGI [10] was > 10 µM, the TGI [11] was > 10 µM and the TGI [12] was > 10 µM. For the same compound, the TGI [13] was > 10 µM, the TGI [14] was > 10 µM and the TGI [15] was > 10 µM. The TGI [16] was > 10 µM, the TGI [17] was > 10 µM and the TGI [18] was > 10 µM. For the same compound, the TGI [19] was > 10 µM, the TGI [20] was > 10 µM and the TGI [21] was > 10 µM. For the same compound, the TGI [22] was > 10 µM, the TGI [23] was > 10 µM and the TGI [24] was > 10 µM. For the same compound, the TGI [25] was > 10 µM, the TGI [26] was > 10 µM and the TGI [27] was > 10 µM. For the same compound, the TGI [28] was > 10 µM, the TGI [29] was > 10 µM and the TGI [30] was > 10 µM. For the same compound, the TGI [31] was > 10 µM, the TGI [32] was > 10 µM and the TGI [33] was > 10 µM. The TGI [34] was > 10 µM, the TGI [35] was > 10 µM and the TGI [36] was > 10 µM. The TGI [37] was > 10 µM, the TGI [38] was > 10 µM and the TGI [39] was > 10 µM. The TGI [40] was > 10 µM, the TGI [41] was > 10 µM and the TGI [42] was > 10 µM. For the same compound, the TGI [43] was > 10 µM, the TGI [44] was > 10 µM and the TGI [45] was > 10 µM. The TGI [46] was > 10 µM, the TGI [47] was > 10 µM and the TGI [48] was > 10 µM. The TGI [49] was > 10 µM, the TGI [50] was > 10 µM and the TGI [51] was > 10 µM. The TGI [52] was > 10 µM and the TGI [53] was > 10 µM.
In the case of `NC(CCOCCP(=O)(O)O)C(=O)O` (configuration not stated), the TGI [1] is reported as > 100 µM, the TGI [2] is reported as > 100 µM and the TGI [3] is reported as > 100 µM. The TGI [4] was > 100 µM, the TGI [5] was > 100 µM and the TGI [6] was > 100 µM. The TGI [8] was > 100 µM, the TGI [9] was > 100 µM and the TGI [10] was > 100 µM. The TGI [11] was > 100 µM, the TGI [12] was > 100 µM and the TGI [14] was > 100 µM. The TGI [15] was > 100 µM, the TGI [16] was > 100 µM and the TGI [17] was > 100 µM. For the same compound, the TGI [18] was > 100 µM, the TGI [19] was > 100 µM and the TGI [20] was > 100 µM. For the same compound, the TGI [21] was > 100 µM, the TGI [22] was > 100 µM and the TGI [23] was > 100 µM. The TGI [54] was > 100 µM, the TGI [24] was > 100 µM and the TGI [25] was > 100 µM. For the same compound, the TGI [26] was > 100 µM, the TGI [28] was > 100 µM and the TGI [29] was > 100 µM. The TGI [30] was > 100 µM, the TGI [31] was > 100 µM and the TGI [32] was > 100 µM. The TGI [33] was > 100 µM, the TGI [34] was > 100 µM and the TGI [35] was > 100 µM. The TGI [36] was > 100 µM, the TGI [37] was > 100 µM and the TGI [38] was > 100 µM. For the same compound, the TGI [39] was > 100 µM, the TGI [40] was > 100 µM and the TGI [41] was > 100 µM. The TGI [55] was > 100 µM, the TGI [42] was > 100 µM and the TGI [43] was > 100 µM. The TGI [44] was > 100 µM, the TGI [56] was > 100 µM and the TGI [45] was > 100 µM. The TGI [46] was > 100 µM, the TGI [47] was > 100 µM and the TGI [48] was > 100 µM. The TGI [49] was > 100 µM, the TGI [50] was > 100 µM and the TGI [51] was > 100 µM. For the same compound, the TGI [57] was > 100 µM, the TGI [52] was > 100 µM and the TGI [53] was > 100 µM.
